pIC50: −log10 of the molar value. Blank lines part the entries; values can stand above or below the molecule they belong to.
Columns and labels:
[1] = Cmax in mouse at 50 mg/kg, po measured upto 24 hrs by LC-MS/MS analysis; type: ADME, organism-based; settings: in vivo
[2] = Half life in mouse at 1 mg/kg, iv measured upto 24 hrs by LC-MS/MS analysis; type: ADME, organism-based; settings: in vivo
[3] = molecular target: Histone-lysine N-methyltransferase 2B (Homo sapiens, UniProt Q9UMN6); experiment: Inhibition of MLL4 (unknown origin)
Histone-lysine N-methyltransferase 2B, sequence (Q9UMN6 whole entry): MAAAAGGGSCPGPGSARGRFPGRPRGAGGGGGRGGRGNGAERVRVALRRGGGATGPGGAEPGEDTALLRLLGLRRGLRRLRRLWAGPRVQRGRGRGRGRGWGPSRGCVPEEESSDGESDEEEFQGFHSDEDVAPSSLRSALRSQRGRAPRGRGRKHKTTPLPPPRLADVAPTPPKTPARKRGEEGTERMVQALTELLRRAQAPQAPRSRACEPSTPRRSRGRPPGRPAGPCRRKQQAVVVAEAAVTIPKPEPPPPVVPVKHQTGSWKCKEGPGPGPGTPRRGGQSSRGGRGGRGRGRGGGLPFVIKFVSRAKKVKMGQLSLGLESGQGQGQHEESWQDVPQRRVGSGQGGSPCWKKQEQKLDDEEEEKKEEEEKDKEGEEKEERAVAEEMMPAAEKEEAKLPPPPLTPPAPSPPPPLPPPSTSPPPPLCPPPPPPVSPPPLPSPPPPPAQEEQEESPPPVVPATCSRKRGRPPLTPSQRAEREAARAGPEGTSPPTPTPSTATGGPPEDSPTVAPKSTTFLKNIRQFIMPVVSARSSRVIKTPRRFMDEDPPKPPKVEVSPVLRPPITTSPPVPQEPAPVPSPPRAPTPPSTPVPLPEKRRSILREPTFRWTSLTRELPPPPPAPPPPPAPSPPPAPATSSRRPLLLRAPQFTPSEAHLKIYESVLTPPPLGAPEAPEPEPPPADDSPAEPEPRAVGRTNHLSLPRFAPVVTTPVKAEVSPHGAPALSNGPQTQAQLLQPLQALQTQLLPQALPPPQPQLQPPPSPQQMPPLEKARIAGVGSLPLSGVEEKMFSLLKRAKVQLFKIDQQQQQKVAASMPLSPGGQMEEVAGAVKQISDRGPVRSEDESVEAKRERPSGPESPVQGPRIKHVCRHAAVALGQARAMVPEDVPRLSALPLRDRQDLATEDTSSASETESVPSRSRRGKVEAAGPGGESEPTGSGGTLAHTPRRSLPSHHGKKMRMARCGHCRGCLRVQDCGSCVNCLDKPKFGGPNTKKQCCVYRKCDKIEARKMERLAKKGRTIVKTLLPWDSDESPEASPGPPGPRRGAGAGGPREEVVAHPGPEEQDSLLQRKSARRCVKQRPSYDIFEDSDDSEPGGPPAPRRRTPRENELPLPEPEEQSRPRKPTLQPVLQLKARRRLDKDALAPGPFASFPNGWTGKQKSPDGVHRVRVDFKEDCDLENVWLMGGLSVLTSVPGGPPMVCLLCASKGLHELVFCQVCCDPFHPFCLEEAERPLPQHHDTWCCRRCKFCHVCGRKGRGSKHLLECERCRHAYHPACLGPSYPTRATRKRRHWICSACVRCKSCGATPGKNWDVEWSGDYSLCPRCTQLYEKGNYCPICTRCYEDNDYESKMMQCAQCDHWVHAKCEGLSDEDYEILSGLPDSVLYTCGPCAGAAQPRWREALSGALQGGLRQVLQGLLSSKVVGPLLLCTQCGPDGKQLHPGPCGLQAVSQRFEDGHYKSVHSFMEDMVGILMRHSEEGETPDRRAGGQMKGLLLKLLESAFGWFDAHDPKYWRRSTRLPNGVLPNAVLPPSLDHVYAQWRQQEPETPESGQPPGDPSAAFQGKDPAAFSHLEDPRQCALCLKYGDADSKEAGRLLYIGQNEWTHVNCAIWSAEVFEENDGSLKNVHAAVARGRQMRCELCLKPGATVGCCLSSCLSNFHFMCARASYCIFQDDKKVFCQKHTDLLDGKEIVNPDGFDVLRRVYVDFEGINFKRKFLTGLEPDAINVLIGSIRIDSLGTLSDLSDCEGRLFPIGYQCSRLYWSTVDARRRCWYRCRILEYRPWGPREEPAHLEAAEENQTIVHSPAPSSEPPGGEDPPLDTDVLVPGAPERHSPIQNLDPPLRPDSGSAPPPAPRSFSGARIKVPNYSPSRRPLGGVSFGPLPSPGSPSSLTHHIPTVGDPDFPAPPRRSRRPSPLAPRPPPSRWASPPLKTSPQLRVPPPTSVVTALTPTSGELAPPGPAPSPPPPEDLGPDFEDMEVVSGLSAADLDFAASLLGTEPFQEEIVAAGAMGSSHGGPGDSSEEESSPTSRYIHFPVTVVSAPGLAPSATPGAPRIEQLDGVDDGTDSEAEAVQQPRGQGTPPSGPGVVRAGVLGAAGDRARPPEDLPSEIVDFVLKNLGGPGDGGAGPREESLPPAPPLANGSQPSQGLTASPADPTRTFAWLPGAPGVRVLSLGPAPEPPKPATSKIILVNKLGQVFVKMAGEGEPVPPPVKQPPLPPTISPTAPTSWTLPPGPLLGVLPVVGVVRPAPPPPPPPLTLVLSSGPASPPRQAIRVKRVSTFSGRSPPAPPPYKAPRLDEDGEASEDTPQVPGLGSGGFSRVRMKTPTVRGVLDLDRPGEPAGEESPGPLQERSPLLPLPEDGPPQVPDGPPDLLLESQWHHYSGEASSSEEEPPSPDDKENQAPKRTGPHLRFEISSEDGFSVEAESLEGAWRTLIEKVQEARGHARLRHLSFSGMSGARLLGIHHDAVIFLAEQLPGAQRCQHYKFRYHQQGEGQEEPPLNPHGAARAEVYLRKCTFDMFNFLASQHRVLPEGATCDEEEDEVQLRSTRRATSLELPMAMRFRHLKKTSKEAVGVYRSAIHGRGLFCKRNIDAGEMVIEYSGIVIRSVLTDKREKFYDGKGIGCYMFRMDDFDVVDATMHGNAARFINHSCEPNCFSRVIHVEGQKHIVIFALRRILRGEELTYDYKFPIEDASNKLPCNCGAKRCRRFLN

[4] = molecular target: Histone-lysine N-methyltransferase EZH2 (Homo sapiens, UniProt Q15910); experiment: Inhibition of EZH2 (unknown origin)
[5] = AUC (0 to last) in mouse at 1 mg/kg, iv measured upto 24 hrs by LC-MS/MS analysis; type: ADME, organism-based; settings: in vivo
[6] = Volume of distribution at steady state in mouse at 1 mg/kg, iv measured upto 24 hrs by LC-MS/MS analysis; type: ADME, organism-based; settings: in vivo, read-out: Vdss
[7] = molecular target: DNA (cytosine-5)-methyltransferase 1 (Homo sapiens, UniProt P26358); experiment: Inhibition of DNMT1 (unknown origin)
DNA (cytosine-5)-methyltransferase 1, sequence (P26358 whole entry): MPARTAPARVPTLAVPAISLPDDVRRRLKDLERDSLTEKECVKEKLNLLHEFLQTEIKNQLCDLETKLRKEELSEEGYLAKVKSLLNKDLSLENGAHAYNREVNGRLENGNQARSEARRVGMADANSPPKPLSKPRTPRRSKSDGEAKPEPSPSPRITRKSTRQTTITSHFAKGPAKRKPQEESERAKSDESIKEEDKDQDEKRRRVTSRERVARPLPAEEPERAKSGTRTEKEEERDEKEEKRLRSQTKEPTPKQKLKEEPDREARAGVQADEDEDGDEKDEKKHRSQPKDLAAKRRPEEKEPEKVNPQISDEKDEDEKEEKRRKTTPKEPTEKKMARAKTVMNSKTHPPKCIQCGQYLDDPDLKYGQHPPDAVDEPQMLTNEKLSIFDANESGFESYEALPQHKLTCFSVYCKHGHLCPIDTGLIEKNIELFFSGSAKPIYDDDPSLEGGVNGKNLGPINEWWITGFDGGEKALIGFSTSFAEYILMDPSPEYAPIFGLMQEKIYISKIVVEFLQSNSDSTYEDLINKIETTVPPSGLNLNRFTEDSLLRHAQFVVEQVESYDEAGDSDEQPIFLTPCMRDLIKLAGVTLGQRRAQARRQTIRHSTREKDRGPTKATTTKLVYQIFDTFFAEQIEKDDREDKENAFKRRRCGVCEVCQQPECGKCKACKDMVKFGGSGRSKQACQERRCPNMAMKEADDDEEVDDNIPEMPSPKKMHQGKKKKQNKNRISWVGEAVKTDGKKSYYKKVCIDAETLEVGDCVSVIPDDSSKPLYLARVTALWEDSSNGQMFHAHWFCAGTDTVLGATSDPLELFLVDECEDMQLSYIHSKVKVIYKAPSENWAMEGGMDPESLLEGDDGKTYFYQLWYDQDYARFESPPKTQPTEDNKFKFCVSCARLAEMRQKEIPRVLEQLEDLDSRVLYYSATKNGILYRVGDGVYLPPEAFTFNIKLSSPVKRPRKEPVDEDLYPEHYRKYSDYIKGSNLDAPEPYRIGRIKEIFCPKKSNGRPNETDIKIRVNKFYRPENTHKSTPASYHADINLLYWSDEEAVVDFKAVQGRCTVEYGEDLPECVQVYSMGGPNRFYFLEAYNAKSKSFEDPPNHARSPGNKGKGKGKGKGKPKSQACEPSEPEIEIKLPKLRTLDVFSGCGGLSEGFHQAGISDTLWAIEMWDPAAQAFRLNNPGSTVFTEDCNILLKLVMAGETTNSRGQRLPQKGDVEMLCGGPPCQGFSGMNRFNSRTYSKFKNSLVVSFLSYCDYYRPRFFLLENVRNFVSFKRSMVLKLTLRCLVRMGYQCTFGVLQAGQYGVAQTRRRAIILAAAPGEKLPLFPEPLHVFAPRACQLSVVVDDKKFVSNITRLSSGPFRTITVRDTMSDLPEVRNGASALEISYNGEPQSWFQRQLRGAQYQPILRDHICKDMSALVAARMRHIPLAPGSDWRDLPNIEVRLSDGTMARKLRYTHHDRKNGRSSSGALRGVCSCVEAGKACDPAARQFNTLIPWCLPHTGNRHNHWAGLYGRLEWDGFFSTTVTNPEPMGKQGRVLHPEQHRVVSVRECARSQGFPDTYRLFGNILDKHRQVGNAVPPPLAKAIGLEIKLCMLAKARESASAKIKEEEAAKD

[8] = molecular target: T1, Histone-arginine methyltransferase CARM1 (Homo sapiens, UniProt Q86X55); experiment: Inhibition of PRMT4 (unknown origin)
T1 sequence (Q86X55 whole entry): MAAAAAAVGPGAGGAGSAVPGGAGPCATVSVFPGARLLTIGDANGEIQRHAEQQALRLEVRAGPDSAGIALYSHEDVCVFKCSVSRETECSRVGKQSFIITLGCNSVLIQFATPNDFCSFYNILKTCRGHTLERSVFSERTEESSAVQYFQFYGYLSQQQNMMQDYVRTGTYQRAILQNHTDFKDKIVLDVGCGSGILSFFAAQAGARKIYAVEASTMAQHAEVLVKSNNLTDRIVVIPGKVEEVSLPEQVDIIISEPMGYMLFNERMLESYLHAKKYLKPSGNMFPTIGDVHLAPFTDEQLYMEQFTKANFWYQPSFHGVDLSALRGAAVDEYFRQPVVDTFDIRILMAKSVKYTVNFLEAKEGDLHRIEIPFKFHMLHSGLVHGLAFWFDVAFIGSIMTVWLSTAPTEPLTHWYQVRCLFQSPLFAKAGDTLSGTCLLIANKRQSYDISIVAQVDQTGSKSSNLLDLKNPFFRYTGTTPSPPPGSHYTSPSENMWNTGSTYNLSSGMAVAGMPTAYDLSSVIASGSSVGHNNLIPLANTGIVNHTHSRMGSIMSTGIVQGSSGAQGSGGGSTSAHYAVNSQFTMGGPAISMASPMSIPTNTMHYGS

[9] = AUC (0 to last) in mouse at 50 mg/kg, po measured upto 24 hrs by LC-MS/MS analysis; type: ADME, organism-based; settings: in vivo
[10] = Toxicity in female NU/NU mouse xenografted with human RS4-11 cells assessed as change in body weight at 50 mg/kg, po administered for 21 days; type: organism-based; settings: in vivo, 504 h, time 21 day
[11] = MRT (0 to t) in mouse at 1 mg/kg, iv measured upto 24 hrs by LC-MS/MS analysis; type: ADME, organism-based; settings: in vivo
[12] = AUC (0 to infinity) in mouse at 1 mg/kg, iv measured upto 24 hrs by LC-MS/MS analysis; type: ADME, organism-based; settings: in vivo
[13] = Cmax in mouse at 1 mg/kg, iv measured upto 24 hrs by LC-MS/MS analysis; type: ADME, organism-based; settings: in vivo
[14] = Half life in mouse at 50 mg/kg, po measured upto 24 hrs by LC-MS/MS analysis; type: ADME, organism-based; settings: in vivo
[15] = MRT (0 to t) in mouse at 50 mg/kg, po measured upto 24 hrs by LC-MS/MS analysis; type: ADME, organism-based; settings: in vivo
[16] = Oral bioavailability in mouse at 50 mg/kg measured upto 24 hrs by LC-MS/MS analysis; type: ADME, organism-based; settings: in vivo
[17] = molecular target: Histone-lysine N-methyltransferase 2A (Homo sapiens, UniProt Q03164); experiment: Inhibition of MLL1 (unknown origin)
[18] = molecular target: Protein arginine N-methyltransferase 5 (Homo sapiens, UniProt O14744); experiment: Inhibition of PRMT5 (unknown origin)
Protein arginine N-methyltransferase 5, sequence (O14744 whole entry): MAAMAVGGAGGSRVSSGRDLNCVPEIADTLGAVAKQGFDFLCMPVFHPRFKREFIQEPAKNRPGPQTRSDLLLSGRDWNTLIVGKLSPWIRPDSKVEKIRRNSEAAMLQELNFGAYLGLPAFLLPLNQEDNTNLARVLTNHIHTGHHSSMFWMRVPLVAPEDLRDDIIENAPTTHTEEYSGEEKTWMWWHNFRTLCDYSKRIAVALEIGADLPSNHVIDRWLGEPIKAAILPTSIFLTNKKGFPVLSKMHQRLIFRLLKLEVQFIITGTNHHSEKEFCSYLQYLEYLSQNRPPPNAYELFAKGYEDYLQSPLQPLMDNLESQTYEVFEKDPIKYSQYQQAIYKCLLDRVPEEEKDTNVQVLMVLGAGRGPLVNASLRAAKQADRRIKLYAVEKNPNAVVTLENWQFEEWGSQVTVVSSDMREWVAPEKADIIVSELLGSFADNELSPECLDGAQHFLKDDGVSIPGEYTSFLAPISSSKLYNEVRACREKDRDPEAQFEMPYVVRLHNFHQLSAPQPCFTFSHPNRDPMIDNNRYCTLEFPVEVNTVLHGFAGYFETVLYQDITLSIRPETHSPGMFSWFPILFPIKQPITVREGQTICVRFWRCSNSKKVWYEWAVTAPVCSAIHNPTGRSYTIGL

[19] = molecular target: Protein arginine N-methyltransferase 8 (Homo sapiens, UniProt Q9NR22); experiment: Inhibition of PRMT8 (unknown origin)
[20] = AUC (0 to infinity) in mouse at 50 mg/kg, po measured upto 24 hrs by LC-MS/MS analysis; type: ADME, organism-based; settings: in vivo
[21] = molecular target: T2, Histone-lysine N-methyltransferase EHMT1 (Homo sapiens, UniProt Q9H9B1); experiment: Inhibition of GLP (unknown origin)
T2 sequence (Q9H9B1 whole entry): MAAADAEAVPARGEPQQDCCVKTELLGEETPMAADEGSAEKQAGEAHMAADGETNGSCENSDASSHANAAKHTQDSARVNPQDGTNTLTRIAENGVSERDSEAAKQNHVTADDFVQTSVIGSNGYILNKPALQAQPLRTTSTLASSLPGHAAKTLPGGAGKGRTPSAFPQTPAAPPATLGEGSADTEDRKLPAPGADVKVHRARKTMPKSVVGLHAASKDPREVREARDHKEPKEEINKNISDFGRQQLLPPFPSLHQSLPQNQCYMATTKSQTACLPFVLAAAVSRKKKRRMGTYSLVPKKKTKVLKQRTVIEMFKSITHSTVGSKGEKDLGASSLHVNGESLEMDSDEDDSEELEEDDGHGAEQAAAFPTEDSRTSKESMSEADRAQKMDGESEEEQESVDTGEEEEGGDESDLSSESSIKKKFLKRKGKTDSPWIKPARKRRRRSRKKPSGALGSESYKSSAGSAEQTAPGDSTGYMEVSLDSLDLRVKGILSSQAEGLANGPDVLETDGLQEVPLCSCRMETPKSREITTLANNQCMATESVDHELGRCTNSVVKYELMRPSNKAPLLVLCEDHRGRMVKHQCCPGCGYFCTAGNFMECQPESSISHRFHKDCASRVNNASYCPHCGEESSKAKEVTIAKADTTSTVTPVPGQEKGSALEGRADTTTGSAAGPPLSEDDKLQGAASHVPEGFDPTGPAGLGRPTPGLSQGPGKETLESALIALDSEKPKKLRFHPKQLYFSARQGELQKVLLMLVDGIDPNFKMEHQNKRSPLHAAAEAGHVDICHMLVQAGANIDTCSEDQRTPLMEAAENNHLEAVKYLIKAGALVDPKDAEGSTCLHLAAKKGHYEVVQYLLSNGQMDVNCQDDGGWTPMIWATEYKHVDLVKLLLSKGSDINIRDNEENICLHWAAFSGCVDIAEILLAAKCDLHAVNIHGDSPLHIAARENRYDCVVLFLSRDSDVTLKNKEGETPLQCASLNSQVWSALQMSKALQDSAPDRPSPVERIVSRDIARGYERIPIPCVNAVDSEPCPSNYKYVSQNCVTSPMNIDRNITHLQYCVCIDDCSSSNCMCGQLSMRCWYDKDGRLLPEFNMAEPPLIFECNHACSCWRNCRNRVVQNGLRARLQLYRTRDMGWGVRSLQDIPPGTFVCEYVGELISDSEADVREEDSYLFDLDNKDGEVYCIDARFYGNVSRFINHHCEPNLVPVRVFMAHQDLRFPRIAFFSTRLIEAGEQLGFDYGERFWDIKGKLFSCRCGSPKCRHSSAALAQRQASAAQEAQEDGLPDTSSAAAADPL

[22] = molecular target: T3, Histone-lysine N-methyltransferase NSD2 (Homo sapiens, UniProt O96028); experiment: Inhibition of NSD2-SET domain (unknown origin)
T3 sequence (O96028 whole entry): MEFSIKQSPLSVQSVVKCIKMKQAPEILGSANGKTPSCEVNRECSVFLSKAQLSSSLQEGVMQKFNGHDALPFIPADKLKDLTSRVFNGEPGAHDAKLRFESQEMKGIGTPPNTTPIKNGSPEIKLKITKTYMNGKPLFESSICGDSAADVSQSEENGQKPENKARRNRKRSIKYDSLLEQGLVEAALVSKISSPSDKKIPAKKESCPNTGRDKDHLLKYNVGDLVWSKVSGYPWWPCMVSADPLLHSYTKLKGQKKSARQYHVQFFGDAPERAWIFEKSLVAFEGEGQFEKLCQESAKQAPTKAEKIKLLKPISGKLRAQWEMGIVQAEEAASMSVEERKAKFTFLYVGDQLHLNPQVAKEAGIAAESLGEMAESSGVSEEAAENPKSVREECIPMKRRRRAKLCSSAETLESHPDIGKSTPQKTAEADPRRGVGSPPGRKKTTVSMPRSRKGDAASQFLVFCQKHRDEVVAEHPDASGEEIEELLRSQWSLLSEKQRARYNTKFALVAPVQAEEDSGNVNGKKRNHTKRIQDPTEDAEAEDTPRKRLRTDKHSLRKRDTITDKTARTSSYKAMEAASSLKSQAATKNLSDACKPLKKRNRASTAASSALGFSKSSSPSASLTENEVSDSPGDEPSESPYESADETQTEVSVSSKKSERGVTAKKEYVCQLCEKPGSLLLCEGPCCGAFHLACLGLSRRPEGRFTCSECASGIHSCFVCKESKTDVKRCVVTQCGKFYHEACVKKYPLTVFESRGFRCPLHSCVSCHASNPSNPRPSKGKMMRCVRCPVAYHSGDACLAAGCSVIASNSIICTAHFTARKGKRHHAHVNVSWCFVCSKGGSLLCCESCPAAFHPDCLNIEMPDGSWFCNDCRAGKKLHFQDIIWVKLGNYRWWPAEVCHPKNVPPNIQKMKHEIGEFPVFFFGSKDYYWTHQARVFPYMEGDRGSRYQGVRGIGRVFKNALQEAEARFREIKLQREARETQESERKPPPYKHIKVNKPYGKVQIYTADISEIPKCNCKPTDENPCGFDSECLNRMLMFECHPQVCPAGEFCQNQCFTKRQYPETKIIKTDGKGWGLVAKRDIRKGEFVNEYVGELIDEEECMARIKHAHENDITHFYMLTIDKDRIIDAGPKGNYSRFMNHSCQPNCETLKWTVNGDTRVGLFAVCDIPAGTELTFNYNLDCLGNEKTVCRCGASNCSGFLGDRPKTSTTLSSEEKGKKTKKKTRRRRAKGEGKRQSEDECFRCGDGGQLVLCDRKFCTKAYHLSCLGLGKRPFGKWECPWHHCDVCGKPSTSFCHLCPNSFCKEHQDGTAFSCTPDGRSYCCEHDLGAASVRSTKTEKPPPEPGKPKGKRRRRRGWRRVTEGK

- Cmax [1]: 1160 nM
- t1/2 [2]: 8 h
- pIC50 [3]: < 5.00
- pIC50 [4]: < 5.00
- AUClast [5]: 123.9 ng·h/mL
- Vd [6]: 46 L/kg
- pIC50 [7]: < 5.00
- pIC50 [8]: 5.05
- AUClast [9]: 1694.02 ng·h/mL
- MRT last at 24 h [11]: 6.12 h
- AUC [12]: 134 ng·h/mL
- Cmax [13]: 280 nM
- half-life [14]: 6.35 h
- MRT last at 24 h [15]: 5.3 h
- bioavailability [16]: 27.3%
- pIC50 [17]: < 5.00
- pIC50 [18]: < 5.00
- pIC50 [19]: < 5.00
- AUC [20]: 1760 ng·h/mL
- pIC50 [21]: < 5.00
Compound: COc1cc2c(NC3CCN(C(C)C)CC3)nc(C#N)nc2cc1OCCCN1CCOCC1
- Activity [10]: Non-Toxic

- pIC50 [22]: > 7.00
Compound: COc1cc(F)c(-c2cc(Cn3cnc4c(N)ncnc43)c(N3CCC[C@](N)([C@H](O)C(F)F)C3)cn2)cc1F
